Patent US10377753B2, “Substituted 4-azaindoles and their use as GluN2B receptor modulators” (Janssen Pharmaceutica NV, priority 2015, dated 2019)

The compounds below were run against cloned human NR1/NR2B ion channels (Homo sapiens (Human), UniProt Q05586+Q13224) (assay: HNR2BC: effects of test articles on cloned human NR1/NR2B ion channels expressed in mammalian cells (FLIPR calcium flux)). Conditions: cloned human NR1/NR2B ion channels, Table 5.
cloned human NR1/NR2B ion channels, sequence (Q13224 27-1484, other chains not shown): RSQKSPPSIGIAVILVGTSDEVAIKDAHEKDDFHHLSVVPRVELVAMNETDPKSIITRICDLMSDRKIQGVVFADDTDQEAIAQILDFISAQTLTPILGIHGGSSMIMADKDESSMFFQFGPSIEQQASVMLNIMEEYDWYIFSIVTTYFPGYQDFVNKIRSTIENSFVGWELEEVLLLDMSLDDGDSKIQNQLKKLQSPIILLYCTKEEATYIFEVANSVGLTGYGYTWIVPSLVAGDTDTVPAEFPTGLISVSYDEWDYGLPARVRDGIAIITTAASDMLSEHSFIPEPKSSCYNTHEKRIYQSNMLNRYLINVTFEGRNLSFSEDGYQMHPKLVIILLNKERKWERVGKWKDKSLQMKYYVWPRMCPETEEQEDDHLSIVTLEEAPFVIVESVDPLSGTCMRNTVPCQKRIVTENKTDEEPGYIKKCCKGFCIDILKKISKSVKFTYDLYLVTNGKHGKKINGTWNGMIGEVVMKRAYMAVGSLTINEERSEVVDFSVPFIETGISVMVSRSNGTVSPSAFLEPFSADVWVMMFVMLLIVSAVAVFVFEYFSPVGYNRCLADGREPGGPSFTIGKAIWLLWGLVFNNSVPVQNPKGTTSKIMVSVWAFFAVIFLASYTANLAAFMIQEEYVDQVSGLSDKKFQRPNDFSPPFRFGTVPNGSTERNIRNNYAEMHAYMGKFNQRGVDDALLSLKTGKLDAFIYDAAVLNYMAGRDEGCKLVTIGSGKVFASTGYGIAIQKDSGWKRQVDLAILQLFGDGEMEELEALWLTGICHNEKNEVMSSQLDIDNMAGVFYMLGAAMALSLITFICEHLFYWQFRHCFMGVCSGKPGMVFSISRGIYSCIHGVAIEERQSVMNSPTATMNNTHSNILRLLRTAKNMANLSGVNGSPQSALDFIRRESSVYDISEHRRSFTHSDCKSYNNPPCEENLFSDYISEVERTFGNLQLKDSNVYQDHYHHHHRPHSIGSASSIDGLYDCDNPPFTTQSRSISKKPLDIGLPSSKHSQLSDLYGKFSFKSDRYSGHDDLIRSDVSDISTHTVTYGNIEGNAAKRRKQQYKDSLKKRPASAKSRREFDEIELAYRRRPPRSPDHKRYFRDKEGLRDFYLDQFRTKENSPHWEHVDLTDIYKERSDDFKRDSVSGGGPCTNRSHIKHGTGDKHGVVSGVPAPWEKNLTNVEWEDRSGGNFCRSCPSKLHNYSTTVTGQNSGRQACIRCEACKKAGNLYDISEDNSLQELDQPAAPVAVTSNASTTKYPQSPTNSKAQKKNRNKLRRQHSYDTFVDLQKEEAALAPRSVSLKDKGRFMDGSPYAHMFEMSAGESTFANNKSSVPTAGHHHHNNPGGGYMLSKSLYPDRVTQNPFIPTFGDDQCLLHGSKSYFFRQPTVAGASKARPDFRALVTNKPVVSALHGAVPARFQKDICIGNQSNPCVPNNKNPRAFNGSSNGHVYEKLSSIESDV
Format: cell-based
Method in brief: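 In a stable Tet-On-induced cell line expressing human GluN1/GluN2B, Calcium 5-loaded cells were preincubated 5 min with compound, then stimulated 5 min with glutamate at ~EC80 plus 10 μM glycine, in pH 7.4 HEPES buffer. FLIPR calcium fluorescence was normalized to control wells.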
For `O=C(Cn1cc(Cl)c2ncc(-c3cc(F)cc(F)c3)cc21)N1CC(F)C1` [Example 537, 2-[3-Chloro-6-(3,5-difluorophenyl)pyrrolo[3,2-b]pyridin-1-yl]-1-(3-fluoroazetidin-1-yl)ethanone], the IC50 was 12.6 nM. `O=C(Cn1cc(Cl)c2ncc(-c3cccc(C(F)(F)F)c3F)cc21)N1CC(F)C1` [Example 538, 2-[3-Chloro-6-[2-fluoro-3-(trifluoromethyl)phenyl]pyrrolo[3,2-b]pyridin-1-yl]-1-(3-fluoroazetidin-1-yl)ethanone] showed an IC50 of 79.4 nM. `Cc1c(F)ccc(-c2cnc3c(Cl)cn(CC(=O)N4CC(F)C4)c3c2)c1F` [Example 539, 2-[3-Chloro-6-(2,4-difluoro-3-methyl-phenyl)pyrrolo[3,2-b]pyridin-1-yl]-1-(3-fluoroazetidin-1-yl)ethanone] gave an IC50 of 25.1 nM. Work on `O=C(Cn1cc(Cl)c2ncc(-c3ccc(F)c(Cl)c3)cc21)N1CC(F)C1` [Example 540, 2-[3-Chloro-6-(3-chloro-4-fluoro-phenyl)pyrrolo[3,2-b]pyridin-1-yl]-1-(3-fluoroazetidin-1-yl)ethanone] yielded an IC50 of 25.1 nM. `O=C(Cn1cc(Cl)c2ncc(-c3cccc(Cl)c3F)cc21)N1CC(F)C1` [Example 541, 2-[3-Chloro-6-(3-chloro-2-fluoro-phenyl)pyrrolo[3,2-b]pyridin-1-yl]-1-(3-fluoroazetidin-1-yl)ethanone] gave an IC50 of 39.8 nM. Compound `CCc1cccc(-c2cnc3c(Cl)cn(CC(=O)N4CC(F)C4)c3c2)c1` [Example 542, 2-[3-Chloro-6-(3-ethylphenyl)pyrrolo[3,2-b]pyridin-1-yl]-1-(3-fluoroazetidin-1-yl)ethanone] has an IC50 of 31.6 nM. Compound `O=C(Cn1cc(Cl)c2ncc(-c3cccc(F)c3)cc21)N1CC(F)C1` [Example 543, 2-[3-Chloro-6-(3-fluorophenyl)pyrrolo[3,2-b]pyridin-1-yl]-1-(3-fluoroazetidin-1-yl)ethanone] has an IC50 of 20 nM. `CN(C)C(=O)Cn1cc(Cl)c2ncc(-c3cccc(Cl)c3F)cc21` [Example 544, 2-[3-Chloro-6-(3-chloro-2-fluoro-phenyl)pyrrolo[3,2-b]pyridin-1-yl]-N,N-dimethyl-acetamide] showed an IC50 of 31.6 nM. With `O=C(Cn1cc(Cl)c2ncc(-c3cccc(Cl)c3)cc21)N1CC(F)C1` [Example 545, 2-[3-Chloro-6-(3-chlorophenyl)pyrrolo[3,2-b]pyridin-1-yl]-1-(3-fluoroazetidin-1-yl)ethanone] the IC50 was 12.6 nM. Compound `O=C(Cn1cc(Cl)c2ncc(-c3cccc(C(F)F)c3)cc21)N1CC(F)C1` [Example 546, 2-[3-Chloro-6-[3-(difluoromethyl)phenyl]pyrrolo[3,2-b]pyridin-1-yl]-1-(3-fluoroazetidin-1-yl)ethanone] has an IC50 of 39.8 nM. For `Cc1cccc(-c2cnc3c(F)c(C)n(CC(=O)N4CCC4)c3c2)c1` [Example 547, 1-(Azetidin-1-yl)-2-[3-fluoro-2-methyl-6-(m-tolyl)pyrrolo[3,2-b]pyridin-1-yl]ethanone], the IC50 was 398 nM. For `Cc1cn(CC(=O)N2CCC2)c2cc(-c3ccc(F)c(F)c3)cnc12` [Example 548, 1-(Azetidin-1-yl)-2-[6-(3,4-difluorophenyl)-3-methyl-pyrrolo[3,2-b]pyridin-1-yl]ethanone], the IC50 was 79.4 nM. Work on `Cc1cn(CC(=O)N(C)C)c2cc(-c3ccc(F)c(F)c3)cnc12` [Example 549, 2-[6-(3,4-Difluorophenyl)-3-methyl-pyrrolo[3,2-b]pyridin-1-yl]-N,N-dimethyl-acetamide] yielded an IC50 of 79.4 nM. With `Cc1cccc(-c2cnc3c(C)cn(CC(=O)N4CC(F)C4)c3c2)c1` [Example 550, 1-(3-Fluoroazetidin-1-yl)-2-[3-methyl-6-(m-tolyl)pyrrolo[3,2-b]pyridin-1-yl]ethanone] the IC50 was 126 nM. `Cc1cn(CC(=O)N2CC(F)C2)c2cc(-c3ccc(F)c(F)c3)cnc12` [Example 551, 2-[6-(3,4-Difluorophenyl)-3-methyl-pyrrolo[3,2-b]pyridin-1-yl]-1-(3-fluoroazetidin-1-yl)ethanone] was tested, and the IC50 was 63.1 nM. `Cc1cn(CC(=O)N2CCC2)c2cc(-c3cccc(C(F)(F)F)c3)cnc12` [Example 552, 1-(Azetidin-1-yl)-2-[3-methyl-6-[3-(trifluoromethyl)phenyl]pyrrolo[3,2-b]pyridin-1-yl]ethanone] gave an IC50 of 79.4 nM. Work on `Cc1cn(CC(=O)N(C)C)c2cc(-c3cccc(C(F)(F)F)c3)cnc12` [Example 553, N,N-Dimethyl-2-[3-methyl-6-[3-(trifluoromethyl)phenyl]pyrrolo[3,2-b]pyridin-1-yl]acetamide] yielded an IC50 of 79.4 nM. Compound `Cc1cn(CC(=O)N2CC(F)C2)c2cc(-c3cccc(C(F)(F)F)c3)cnc12` [Example 554, 1-(3-Fluoroazetidin-1-yl)-2-[3-methyl-6-[3-(trifluoromethyl)phenyl]pyrrolo[3,2-b]pyridin-1-yl]ethanone] has an IC50 of 200 nM. `Cc1cn(CC(=O)N(C)C)c2cc(-c3cc(F)cc(F)c3)cnc12` [Example 555, 2-[6-(3,5-Difluorophenyl)-3-methyl-pyrrolo[3,2-b]pyridin-1-yl]-N,N-dimethyl-acetamide] was tested, and the IC50 was 63.1 nM. Work on `Cc1cn(CC(=O)N2CCC2)c2cc(-c3cc(F)cc(F)c3)cnc12` [Example 556, 1-(Azetidin-1-yl)-2-[6-(3,5-difluorophenyl)-3-methyl-pyrrolo[3,2-b]pyridin-1-yl]ethanone] yielded an IC50 of 398 nM. `CCN(C)C(=O)Cn1cc(C)c2ncc(-c3cc(F)cc(F)c3)cc21` [Example 557, 2-[6-(3,5-Difluorophenyl)-3-methyl-pyrrolo[3,2-b]pyridin-1-yl]-N-ethyl-N-methyl-acetamide] was tested, and the IC50 was 126 nM. With `Cc1cn(CC(=O)N(C)C)c2cc(-c3ccc(F)cc3)cnc12` [Example 558, 2-[6-(4-Fluorophenyl)-3-methyl-pyrrolo[3,2-b]pyridin-1-yl]-N,N-dimethyl-acetamide] the IC50 was 79.4 nM. Compound `CCN(C)C(=O)Cn1cc(C)c2ncc(-c3ccc(F)cc3)cc21` [Example 559, N-Ethyl-2-[6-(4-fluorophenyl)-3-methyl-pyrrolo[3,2-b]pyridin-1-yl]-N-methyl-acetamide] has an IC50 of 158 nM. `CCN(C)C(=O)Cn1cc(C)c2ncc(-c3cccc(C)c3F)cc21` [Example 560, N-Ethyl-2-[6-(2-fluoro-3-methyl-phenyl)-3-methyl-pyrrolo[3,2-b]pyridin-1-yl]-N-methyl-acetamide] gave an IC50 of 794 nM. Work on `Cc1cccc(-c2cnc3c(C)cn(CC(=O)N4CCC4)c3c2)c1F` [Example 561, 1-(Azetidin-1-yl)-2-[6-(2-fluoro-3-methyl-phenyl)-3-methyl-pyrrolo[3,2-b]pyridin-1-yl]ethanone] yielded an IC50 of 398 nM. `Cc1cccc(-c2cnc3c(C)cn(CC(=O)N(C)C)c3c2)c1F` [Example 562, 2-[6-(2-Fluoro-3-methyl-phenyl)-3-methyl-pyrrolo[3,2-b]pyridin-1-yl]-N,N-dimethyl-acetamide] showed an IC50 of 50.1 nM. `Cc1cccc(-c2cnc3c(C)cn(CC(=O)N4CC(F)C4)c3c2)c1F` [Example 563, 1-(3-Fluoroazetidin-1-yl)-2-[6-(2-fluoro-3-methyl-phenyl)-3-methyl-pyrrolo[3,2-b]pyridin-1-yl]ethanone] showed an IC50 of 39.8 nM. Work on `Cc1cccc(-c2cnc3c(C)cn(CC(=O)N4CC(F)(F)C4)c3c2)c1F` [Example 564, 1-(3,3-Difluoroazetidin-1-yl)-2-[6-(2-fluoro-3-methyl-phenyl)-3-methyl-pyrrolo[3,2-b]pyridin-1-yl]ethanone] yielded an IC50 of 100 nM. Work on `Cc1cccc(-c2cnc3c(C)cn(CC(=O)N4CCCC4)c3c2)c1F` [Example 565, 2-[6-(2-Fluoro-3-methyl-phenyl)-3-methyl-pyrrolo[3,2-b]pyridin-1-yl]-1-pyrrolidin-1-yl-ethanone] yielded an IC50 of 126 nM. `Cc1cc(-c2cnc3c(C)cn(CC(=O)N(C)C)c3c2)ccc1F` [Example 566, 2-[6-(4-Fluoro-3-methyl-phenyl)-3-methyl-pyrrolo[3,2-b]pyridin-1-yl]-N,N-dimethyl-acetamide] was tested, and the IC50 was 50.1 nM. `Cc1cn(CC(=O)N2CCCC2)c2cc(-c3cccc(C(F)(F)F)c3)cnc12` [Example 567, 2-[3-Methyl-6-[3-(trifluoromethyl)phenyl]pyrrolo[3,2-b]pyridin-1-yl]-1-pyrrolidin-1-yl-ethanone] was tested, and the IC50 was 200 nM. `CCN(C)C(=O)Cn1cc(C)c2ncc(-c3cccc(C(F)(F)F)c3)cc21` [Example 568, N-Ethyl-N-methyl-2-[3-methyl-6-[3-(trifluoromethyl)phenyl]pyrrolo[3,2-b]pyridin-1-yl]acetamide] was tested, and the IC50 was 501 nM. With `Cc1cn(CC(=O)N2CC(F)(F)C2)c2cc(-c3cccc(C(F)(F)F)c3)cnc12` [Example 569, 1-(3,3-Difluoroazetidin-1-yl)-2-[3-methyl-6-[3-(trifluoromethyl)phenyl]pyrrolo[3,2-b]pyridin-1-yl]ethanone] the IC50 was 398 nM. Compound `Cc1cn(CC(=O)N2CCC2)c2cc(-c3cc(F)c(F)c(F)c3)cnc12` [Example 570, 1-(Azetidin-1-yl)-2-[3-methyl-6-(3,4,5-trifluorophenyl)pyrrolo[3,2-b]pyridin-1-yl]ethanone] has an IC50 of 63.1 nM. Compound `Cc1cn(CC(=O)N(C)C)c2cc(-c3cc(F)c(F)c(F)c3)cnc12` [Example 571, N,N-Dimethyl-2-[3-methyl-6-(3,4,5-trifluorophenyl)pyrrolo[3,2-b]pyridin-1-yl]acetamide] has an IC50 of 50.1 nM. Compound `Cc1cccc(-c2cnc3c(C)cn(CC(=O)N(C)C)c3c2)c1` [Example 572, N,N-Dimethyl-2-[3-methyl-6-(m-tolyl)pyrrolo[3,2-b]pyridin-1-yl]acetamide] has an IC50 of 79.4 nM. With `Cc1csc(-c2cnc3c(C)cn(CC(=O)N(C)C)c3c2)c1` [Example 573, N,N-Dimethyl-2-[3-methyl-6-(4-methyl-2-thienyl)pyrrolo[3,2-b]pyridin-1-yl]acetamide] the IC50 was 126 nM. In the case of `Cc1csc(-c2cnc3c(C)cn(CC(=O)N4CCC4)c3c2)c1` [Example 574, 1-(Azetidin-1-yl)-2-[3-methyl-6-(4-methyl-2-thienyl)pyrrolo[3,2-b]pyridin-1-yl]ethanone], the IC50 is reported as 79.4 nM. Work on `Cc1csc(-c2cnc3c(C)cn(CC(=O)N4CC(F)C4)c3c2)c1` [Example 575, 1-(3-Fluoroazetidin-1-yl)-2-[3-methyl-6-(4-methyl-2-thienyl)pyrrolo[3,2-b]pyridin-1-yl]ethanone] yielded an IC50 of 79.4 nM.
